Values after ≈ are worked out from the molar mass of the structure shown. Like-named read-outs stand apart in the source and are kept apart here.

What is called solubility is how much of the substance goes into solution per volume.

Data set [1] in a line: Solubility in phosphate-buffered saline solutions, PBS(-) and PBS(+). It counts as physicochemical. As to the method: The solubility of the various antibiotics was determined in phosphate-buffered saline (PBS) solutions and the data obtained are shown below. PBS(-) refers to a solution containing for each liter 0.2 g KCl, 0.2 g KH2 PO4, 8 g NaCl, and 1.15 g Na2 HPO4; PBS(+) contains additionally 100 mg MgCl2.6H2 O and 100 mg CaCl2.

The subject of another data set is Candida albicans A9540. Briefly: In vivo activity against Candida albicans A9540 infection in mice. Also on record: species or system male ICR mice. To be noted: for ED50: Candida albicans, read-out: PD50 (dose that protects 50% of the animals from infection). As to the method: In vivo activity of compounds of the present invention was tested against Candida albicans A9540 infection in mice. Test organisms were cultured for 18 hours at 28° C. in YGP medium (yeast extract, glucose, peptone, K2 HPO4, MgSO4) and then suspended in saline. Male ICR mice weighing 20 to 24 g were infected intravenously with about 10 times the median lethal dose of the test fungus. The antibiotic at various dose levels was administered to groups of 5 mice each intravenously just after the fungal infection. The dose that protects 50% of the animals from infection (PD50, mg/kg) was calculated from survival rates recorded on the 20th day after the fungal challenge. All control animals died within 7 to 15 days after infection. The PD50 for compounds of Examples 5, 7, and 8 are 14 mg/kg (toxic), 11 mg/kg, and 3.5 mg/kg, respectively.

Another data set is described as follows: Solubility in water. The format is physicochemical. To be noted: in words.
The mark [2] stands for this setting: pbs(+) with mgcl2, PBS(+), containing additionally MgCl2 and CaCl2, read-out: Solubility.
The mark [3] stands for this setting: A9540, 480 h, intravenous just after infection, survival on 20th day.

Consider `CCCN(C)[C@@H]1[C@H](O[C@@H]2OC[C@@H](O)[C@H](O)[C@H]2O)[C@@H](O)[C@H](O[C@H]2c3cc(C)c(C(=O)N[C@H](C)C(=O)O)c(O)c3-c3c(cc4c(c3O)C(=O)c3cc(OC)cc(O)c3C4=O)[C@@H]2O)O[C@@H]1C` [Example 9, N-propyl BU-3608], for which the solubility turned out to be 32 µg/mL (≈ 36.2 µM) in data set [1] (setting [2]) and 73 µg/mL (≈ 82.7 µM) in data set [1] (pbs(-), read-out: Solubility).

`COc1cc(O)c2c(c1)C(=O)c1c(cc3c(c1O)-c1c(cc(C)c(C(=O)N[C@H](C)C(=O)O)c1O)[C@H](O[C@@H]1O[C@H](C)[C@H](N(C)C)[C@H](O)[C@H]1O)[C@H]3O)C2=O` [Example 5, N-methyl BU-3608 B]: the ED50 in the data set with Candida albicans A9540 (A9540, iv, 480 h) stood at 14 mg/kg. In addition, in the data set on Candida albicans A9540 (intravenous, at 14 mg/kg, mice), the “toxicity remark at PD50” value is reported as “toxic”. Besides, the solubility in data set [1] (pbs(+) with mgcl2, cacl2) was 42 µg/mL (≈ 58.1 µM); in data set [1] (pbs(-)), 330 µg/mL (≈ 457 µM).

Turning to `COc1cc(O)c2c(c1)C(=O)c1c(cc3c(c1O)-c1c(cc(C)c(C(=O)NCC(=O)O)c1O)[C@H](O[C@@H]1O[C@H](C)[C@H](N(C)C)[C@H](O[C@@H]4OC[C@@H](O)[C@H](O)[C@H]4O)[C@H]1O)[C@H]3O)C2=O` [Example 7, N,N-dimethyl BU-3608 E], the ED50 with Candida albicans A9540 (setting [3]) worked out at 11 mg/kg. Also, the solubility in data set [1] (setting [2]) is > 2000 µg/mL; in data set [1] (pbs(-), read-out: Solubility), 1800 µg/mL (≈ 2140 µM).

On to `COc1cc(O)c2c(c1)C(=O)c1c(cc3c(c1O)-c1c(cc(C)c(C(=O)N[C@H](C)C(=O)O)c1O)[C@H](O[C@@H]1O[C@H](C)[C@H](N(C)C)[C@H](O[C@@H]4OC[C@@H](O)[C@H](O)[C@H]4O)[C@H]1O)[C@H]3O)C2=O` [Example 8, N-methyl BU-3608], for which the ED50 in the data set with Candida albicans A9540 (setting [3]) was found to be 3.5 mg/kg. In addition, the solubility came to 3 µg/mL (≈ 3.51 µM) in data set [1] (setting [2]) and 3100 µg/mL (≈ 3630 µM) in data set [1] (pbs(-), read-out: Solubility).

As to `CN[C@@H]1[C@H](O[C@@H]2OC[C@@H](O)[C@H](O)[C@H]2O)[C@@H](O)[C@H](O[C@H]2c3cc(C)c(C(=O)N[C@H](C)C(=O)O)c(O)c3-c3c(cc4c(c3O)C(=O)c3cc(OC)cc(O)c3C4=O)[C@@H]2O)O[C@@H]1C` [BU-3608], the solubility in water entry in “Solubility in water” is on record as “very limited”. For the same molecule, the solubility in data set [1] (setting [2]) was 9 to 23 µg/mL (≈ 10.7 to 27.4 µM); in data set [1] (pbs(-), read-out: Solubility) it was 16 to 18 µg/mL (≈ 19 to 21.4 µM).

In the case of `COc1cc(O)c2c(c1)C(=O)c1c(cc3c(c1O)-c1c(cc(C)c(C(=O)N[C@H](C)C(=O)O)c1O)[C@H](O[C@@H]1O[C@H](C)[C@H]([N+](C)(C)C)[C@H](O[C@@H]4OC[C@@H](O)[C@H](O)[C@H]4O)[C@H]1O)[C@H]3O)C2=O` [Example 10, quaternary ammonium derivative of BU-3608], the solubility in data set [1] (pbs(-), read-out: Solubility) is > 2700 µg/mL.

With `COc1cc(O)c2c(c1)C(=O)c1c(cc3c(c1O)-c1c(cc(C)c(C(=O)NCC(=O)O)c1O)[C@H](O[C@@H]1O[C@H](C)[C@H](N(C)C)[C@H](O)[C@H]1O)[C@H]3O)C2=O` [Example 6, N,N-dimethyl desxylosyl BU-3608 E], the solubility in data set [1] (pbs(+) with mgcl2, cacl2) was 122 µg/mL (≈ 172 µM); in data set [1] (pbs(-)), > 2100 µg/mL.

The values are drawn from patent publication US4960755A, “BU-3608 derivatives” (Bristol-Myers Company, priority 1988, dated 1990).
